Experimental data as given in a melting point compilation (Tetko et al.; mined from patent text by program, amines drawn as free bases though some values may be those of a salt).

SMILES	melting point
O[C@@H]1CN=C(c2cccc(Cl)c2)O[C@H]1c1ccccc1 (racemic)	100 °C
CCOC(=O)c1cnc(O)c2c(C)n[nH]c12	310 °C
N#Cc1ccc2c(c1)C(=O)c1cc3c(cc1OC2)OCO3	217 to 220 °C
CCC1(CCCCCl)C(=O)Nc2ccccc21 (centres undefined)	104 to 105 °C
CCNc1ccc2nc(Cl)c(S(N)(=O)=O)n2n1	218 to 220 °C
O=C(O)c1ccc2[nH]c3ccccc3c2c1	271 to 272 °C
OCc1ccc2c(Cl)ccnc2c1	138 to 139 °C
CCOC(Nc1ccccc1)(OCC)c1cc(C(=O)c2ccc(Cl)cc2)nc(C)c1Cl	156 to 157 °C
Clc1ccccc1-c1nn2cc(-c3ccccc3)nc2s1	126 °C
N#Cc1c(Cl)c2ccccc2[nH]c1=O	> 250 °C
O=C1c2ccccc2Cc2c1ccc(Cl)c2O	186 to 188 °C
CC1=C(C(=O)Nc2cc(Cl)ccc2Cl)SC2=NCCN21	217 to 219 °C
COC(=O)c1cc(N2C(=O)CCC2=O)c(Cl)c(S(N)(=O)=O)c1	195 to 196 °C
COC(=O)c1c(C)n(-c2ccc(Cl)cc2)c(C)cc1=O	189 to 190 °C
COc1ccc2c(c1)C13CCN(C)C(C2)C1(O)C=CC(=O)C3 (centres undefined)	213 to 215 °C
Cn1cc(-c2cc(Cl)cc(Cl)c2)c(=O)c(-c2cccc(C(F)(F)F)c2)c1	156 to 160 °C
Brc1c[nH]c2ccc(Nc3ncnc4cc(-c5ccccc5)sc34)cc12	201 to 203 °C
Cn1c(=Nc2nc(C(Cl)(Cl)Cl)nc(C(Cl)(Cl)Cl)n2)sc2ccccc21	251 to 253 °C
CC(C)OC(=O)c1cc(Cl)c(Cl)c(-c2ccc(Cl)cc2)n1	133 to 135 °C
N#CSc1cc(Cl)c(NCCC(=O)O)cc1Cl	133 to 135 °C
CC(C)c1nc(COCc2ccccc2)n(CCO)c1Sc1cc(Cl)cc(Cl)c1	78 to 80 °C
ON=C1CCCCC12OCCO2	97 to 98 °C
O=C(O)Cc1c(C(=O)c2ccc(Br)cc2)[nH]c2cc(Cl)ccc12	199 to 201 °C
Cn1c(C#N)ccc1[N+](=O)[O-]	86 to 87 °C
COc1cccc(NC(=O)NCc2cccc3c2C(=O)N(C2CCC(=O)NC2=O)C3=O)c1 (centres undefined)	160 to 162 °C
CC(C)(C)NS(=O)(=O)c1ccc([Si](C)(C)C)s1	102 to 104 °C

SMILES	melting point
O=c1c2cc(Cl)ccc2nc2n1CCC2=Cc1ccccc1	225 to 227 °C
COc1ccccc1-c1nc2cc(NC(=O)OC(C)(C)C)ccn2n1	203 °C
CCON=C(CC)C1=C(O)CC(c2ccc(NS(C)(=O)=O)cc2)CC1=O (centres undefined)	115 to 116 °C
OC(CN1CCCC1)c1cc(C(F)(F)F)nc2c(C(F)(F)F)cccc12 (centres undefined)	92 to 94 °C
COC(=O)c1ccccc1-c1cc(-c2ccc(OC)cc2)n(C(C)=O)n1	119 to 121 °C
CCn1nnnc1CCC1(C)Cn2cc([N+](=O)[O-])nc2O1 (centres undefined)	135 to 137 °C
Cn1ncc(-c2ccnc(Cl)n2)c1-c1ccc(Cl)cc1Cl	122 to 125 °C
CCC(CC)c1ccc(Cl)c2nc3n(c12)CCCCN3c1ncc(C(F)(F)F)cc1Cl	108 to 110 °C
CCOc1ccc2c(c1)n(C1CCCC1)c(=O)n2S(=O)(=O)c1ccc(C(=O)OC)cc1OC	151 °C
CCC(C)(C)OC(=O)NC(C)(Cc1c[nH]c2ccccc12)C(=O)NCCc1cccs1 (centres undefined)	95 to 98 °C
O=C(Nc1ccccc1)N1CCc2c(cnc3[nH]nc(Br)c23)C1	249 to 250 °C
Cc1ccc(C)c(OCc2ccccc2C(=O)c2ccon2)c1	90.5 to 92 °C
CCCCCCc1cnc(-c2ccc(F)cc2)nc1	39 °C
O=C1N=C(N2CCNCC2)SC1=Cc1cccc(-c2cc(F)c(O)c(C34CC5CC(CC(C5)C3)C4)c2)c1	230 to 233 °C
Cc1cc2c(Oc3cccc(C(F)(F)F)c3)nc(OCC(F)(F)F)nc2s1	124 to 125 °C
C[C@@H]1C[C@H](C)CN(C(=O)[C@@H]2Cc3ccccc3N2c2nccs2)C1	172 to 174 °C
CCCCc1ncc(Sc2ccccc2C(=O)O)n1Cc1ccc(C(=O)O)cc1	260 to 262 °C
Cc1c(CC(=O)O)oc2ccc(C(C)(C)C)cc12	169 to 170 °C
c1ccc(N2CC3CCC(C2)O3)cc1	84 to 85 °C
C=CCN(C)CCNc1ccnc2cc(Cl)ccc12	91 to 93 °C
O=C(NCc1ccc(F)c(F)c1)c1ccnc(N2CCN(Cc3ccc(F)cc3)C2=O)c1	182 to 183 °C
CC(=O)Nc1ccc(P(=O)(O)O)cc1	228 °C
Cn1cc(-c2ccccc2)c(=O)c(-c2cccc(S(=O)(=O)c3ccccc3)c2)c1	65 to 72 °C
CNC(=O)c1ccc([C@@H]2C[C@H]3C=C(c4c[nH]c(-c5ccc(F)c(Cl)c5)c4-c4ccncc4)CCN3C2)cc1	176 to 178 °C
C=C1N(c2ccccc2)C(=O)OC12CCN(C(=O)N1CCN(C)CC1)CC2	139 to 140 °C
Cc1nc(-c2ccc(Cl)cc2)sc1C(N)=O	236 to 237 °C

SMILES	melting point
CC(C)N(Cc1ccccc1)S(=O)(=O)N[C@@H](Cc1ccc(NC(=O)c2c(Cl)cccc2Cl)cc1)C(=O)O	159 °C
COc1ccccc1N1CCN(Cc2cnc(N)nc2N)CC1	195 to 196 °C
CCOC(=O)c1oc2ccccc2c1N=CN(C)C	89 to 90 °C
COc1ccc(NC(=O)c2ccc([N+](=O)[O-])cc2N)cc1	193 to 197 °C
CC(C)(C)OC(=O)NCCNC(=O)Nc1ccccc1C(=O)NC1CCN(C(c2ccccc2)c2ccccc2)CC1	226 to 228 °C
Cc1nc2cccc(OCC(C)(C)NC(=O)CC3CCOCC3)c2c(N)c1C(=O)O	175 to 178 °C
COCCNC(=O)c1cc(C(=O)O)cc([N+](=O)[O-])c1	203 to 207 °C
Cc1cc(CCC(=O)c2ccc(-c3ccc(C(F)(F)F)cc3)s2)cc(C)c1OC(C)(C)C(=O)O	157 to 158 °C
Cc1[nH]c(C(=O)Nc2ccc3[nH]ccc3c2)c(C)c1-c1nc2ccc(C(=O)c3ccccc3)cc2[nH]1	167 to 169 °C
CCCC(=O)Oc1ccc(C(=O)Nc2ccc3cc(CN4CCCC4)cnc3c2C)cc1	156 to 158 °C
COc1cc(OCc2ccccc2)ccc1S(=O)(=O)Cl	95 °C
CN1C(=O)Cc2ccc(Cl)cc21	116 to 117 °C
CN(C)NC(=O)N1CCC(Br)C1=O (centres undefined)	78 to 79 °C
CC(C)(C)OC(=O)Nc1ccc(C#Cc2ccccc2)cc1NC(=O)CC(=O)c1cccc([N+](=O)[O-])c1	177 to 179 °C
CSc1nc2c(n1-c1ccccc1)CCCC2	112 °C
CC1(C)C(=N)N(CC(N)=O)c2ccccc21	167 to 173 °C
COC(=O)c1ccc(C(Cc2cc(C)ccc2N2CCCCC2)C(N)=O)cc1 (centres undefined)	124 to 126 °C
COC(=O)CCc1ccc(NC(=O)N(NC(=O)c2ccccc2)c2ccc(C#N)cc2)cc1	76 to 81 °C
CC(C)N(C1CCCC1)S(=O)(=O)N[C@@H](Cc1ccc(NC(=O)c2c(Cl)cncc2Cl)cc1)C(=O)O	157 °C
O=C(CO)Nc1ccc(O)cc1	141 to 143 °C
CCN1C(=O)Nc2ccc(Cl)cc2C1(C#CC1(C)CC1)C(F)(F)F (centres undefined)	219 to 222 °C
CNC(=O)c1ccccc1Nc1nc(Nc2ccc3c(c2)CCCC(=O)N3)ncc1Cl	283 °C
CC(C)CNCC(=O)Nc1ccc2c(c1)C(=O)c1cc(NC(=O)CNCC(C)C)ccc1C2=O	146 °C
CCNc1ccc2c(c1)CN(c1cc3c(cc1F)c(=O)c(C(=O)O)cn3CC)C2	246 to 248 °C
CC1CN(Cc2ccccc2)Cc2c(C=O)c(-c3ccccc3)n(Cc3ccccc3)c21 (centres undefined)	120 to 121 °C
CC1(C)CC(=O)C(S(=O)Cc2ccc(Cl)cc2)=C(O)C1 (centres undefined)	144 to 145 °C

SMILES	melting point
N#Cc1cccc(CCC(=O)O)c1	95 °C
N#Cc1ccc(Cn2c(=O)[nH]c3cc(Cl)cc(Cl)c3c2=O)cc1	317 to 320 °C
CC(C)c1cccc(C(C)C)c1NC(=O)CSCCCCCCCCCBr	85 to 86 °C
COc1ncc(OC)c(NN)n1	115 to 117 °C
COCc1nn(-c2cccc(NC(C)=O)c2)c(=O)n(Cc2ccc(Cl)cc2)c1=O	97 °C
Cn1c(COc2ccc(CC3SC(=O)NC3=O)cc2)nc2ccc(Oc3ccc(NC(=O)Nc4ccccc4)cc3)cc21 (centres undefined)	164 to 168 °C
CC(C)(C)COC(=O)c1cc(Cl)c(F)c(Cl)c1	96 to 98 °C
COc1ccc(-n2cc(C(=O)O)cn2)cc1	235 to 237 °C
Cc1nn2ccccc2c1C(=O)c1cccnc1	89 to 90 °C
CC1(C)Cc2c(Cl)c(N)cc(C(=O)O)c2O1	185 to 187 °C
CCOC(=O)n1c(=O)n(CCCl)c2cc(OC)ccc21	116 to 118 °C
COC(=O)C1=C(C)NC(C)=C(C(=O)n2ccnc2)C1c1cccc2nonc12 (centres undefined)	195 °C
COC(=O)ONC(=N)Nc1ccc(C(=O)OC(C)(C)C)cc1	122 to 126 °C
Cc1c(Cl)cc(C(=O)CC(Cl)C(=O)O)cc1Cl (centres undefined)	129 to 132 °C
O=C(O)[C@H](Cc1ccc(C(F)(F)F)cc1)[C@@H](O)c1ccccc1F (racemic)	122 to 123 °C
Cn1ncc(C(=O)O)c1OCc1ccccc1	117 to 122 °C
CC(=O)OCCCCCn1ccc(=O)c(O)c1C	132 to 133 °C
Cc1cccc2c1C1(CCC(=O)NC1=O)CCC2=O (centres undefined)	285 to 287 °C
Cc1cc([N+](=O)[O-])c(C)cc1Cc1cccc(C(F)(F)F)c1	75 to 77 °C
O=C(CCCCC1CCSS1)N1CCSC1 (centres undefined)	40 to 41 °C
O=C1C(=Cc2ccncc2)CCc2ccccc21	112 to 114 °C
Cc1cccc(NC(=O)NCC(=O)N(CC(=O)OC2(C)CCCC2)c2ccccc2)c1	160 °C
COC(=O)C=CC=CCS(=O)c1ccccc1 (centres undefined)	82 to 84 °C
CC(C)(C)OC(=O)N1CCN(c2ccc(Br)cn2)CC1	88 to 90 °C
Cc1c(C(F)(F)C(F)(F)F)ncn(-c2c(Cl)cc(C(F)(F)F)cc2C#N)c1=O	158 to 160 °C
COc1ccc(N(C)CC2CCOCC2)cc1N	97 to 99 °C
